# Test results published in US9850283B2, “Macrocyclic inhibitors of the PD-1/PD-L1 and CD80(B7-1)/PD-L1 protein/protein interactions” (BRISTOL-MYERS SQUIBB COMPANY, priority 2013, dated 2017).
# Read-outs that look alike come from different tables or passages of the source. Positions of bridges follow the written chain, without caps; N, C: chain ends. Non-standard residues stand in square brackets, D forms with d. Residues, ends and D or L forms follow the SMILES beside them. Phe(3,4,5-F3) = N[C@@H](Cc1cc(F)c(F)c(F)c1)C(=O)O; Phe(4-CH2NH2) = NCc1ccc(C[C@H](N)C(=O)O)cc1; d(cisHyp) = O=C(O)[C@H]1C[C@@H](O)CN1; Bta = N[C@@H](Cc1csc2ccccc12)C(=O)O; Hyp = O=C(O)[C@@H]1C[C@@H](O)CN1; NMeF = CN[C@@H](Cc1ccccc1)C(=O)O; NMeNle = CCCC[C@H](NC)C(=O)O; Pip = O=C(O)[C@@H]1CCCCN1; dPip = O=C(O)[C@H]1CCCCN1; NMeA = CN[C@@H](C)C(=O)O; Orn = NCCC[C@H](N)C(=O)O; Dab = NCC[C@H](N)C(=O)O; Dap = NC[C@H](N)C(=O)O; Sar = CNCC(=O)O
# Assays:
# [1] = target: T1, LK35.2-hPD-L1 cells / PE-labeled PD-1-Ig (Homo sapiens, UniProt Q9NZQ7); test: LK35.2-hPD-L1 cell binding high-content screening assay; format: cell-based
# T1 construct: expressed in transfected cells; host or cells: LK35.2 mouse B cell line
# Method in brief: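 Fluorescent PD-1-Ig binding to PD-L1-expressing LK35.2 cells, imaged after washing. Conditions: 1 nM PE-PD-1-Ig, 37 °C, 1 h, RPMI with 10% fetal calf serum.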
# Human PD-L1/PD-1 = target: T2, Human PD-L1/PD-1 (Homo sapiens, UniProt Q9NZQ7); test: HTRF PD-1-Ig/PD-L1-His binding assay (human PD-L1)
# T2 construct: made in house; host or cells: HEK293T
# Method in brief: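 Steps: truncated PD-1-Ig and PD-L1-His fusions are incubated in dPBS containing 0.1% (w/v) BSA and 0.05% (v/v) Tween-20. Detection antibodies are then added (Eu cryptate anti-Ig at 1 nM final, APC anti-His at 20 nM final), and time-resolved FRET is measured.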
# [2] = cell binding assay, cell line not given, cluster symbol, read-out: CBA IC50 cluster
# [3] = cluster symbol, read-out: HTRF IC50 cluster
# [4] = cluster symbol, cell line of CBA not given (LK35.2-hPD-L1 or 293T-hPD-L1), read-out: CBA IC50 cluster
# T2 sequence (Q9NZQ7 with tags, fused parts or gaps): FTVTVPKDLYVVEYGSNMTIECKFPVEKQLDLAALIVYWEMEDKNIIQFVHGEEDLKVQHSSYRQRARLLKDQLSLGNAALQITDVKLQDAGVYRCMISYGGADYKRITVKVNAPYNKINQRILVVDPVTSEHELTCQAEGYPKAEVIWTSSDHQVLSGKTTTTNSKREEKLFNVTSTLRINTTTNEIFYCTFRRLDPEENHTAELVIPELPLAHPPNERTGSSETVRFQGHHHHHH
# T1 sequence (Q9NZQ7 19-290): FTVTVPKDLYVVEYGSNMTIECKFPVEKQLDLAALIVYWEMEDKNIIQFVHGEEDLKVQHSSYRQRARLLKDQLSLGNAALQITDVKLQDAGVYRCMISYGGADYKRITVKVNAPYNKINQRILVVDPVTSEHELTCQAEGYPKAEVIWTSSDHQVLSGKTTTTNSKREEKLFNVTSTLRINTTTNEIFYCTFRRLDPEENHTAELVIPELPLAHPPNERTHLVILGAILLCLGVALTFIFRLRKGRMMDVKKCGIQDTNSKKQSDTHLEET
Structure (SMILES),"IC50 [1, 2] [nM]",IC50 (Human PD-L1/PD-1; [3]) [nM],"IC50 [1, 4] [nM]","IC50 ([1]; cell line of CBA not given (LK35.2-hPD-L1 or 293T-hPD-L1), read-out: CBA IC50 value) [nM]",IC50 (Human PD-L1/PD-1; read-out: HTRF IC50 value) [nM]
CCCC[C@H]1C(=O)N(C)[C@@H](CCCC)C(=O)N[C@@H](CCN)C(=O)N[C@H](C(=O)NCC(N)=O)CSCC(=O)N[C@@H](Cc2ccc(O)cc2)C(=O)N(C)[C@@H](C)C(=O)N[C@@H](CC(N)=O)C(=O)N2CCC[C@H]2C(=O)N[C@@H](Cc2cnc[nH]2)C(=O)N[C@@H](CCC(=O)O)C(=O)N2C[C@H](O)C[C@H]2C(=O)N[C@@H](Cc2c[nH]c3ccccc23)C(=O)N[C@@H](CCN)C(=O)N[C@@H](Cc2c[nH]c3ccccc23)C(=O)N1C [Example 5028] ({CH2CO}-Y[NMeA]NPHE[Hyp]W[Dab]W[NMeNle][NMeNle][Dab]CG-NH2; thioether N-14),0.158 to 4.71,0.385 to 6.74,,,
"CCCC[C@H]1C(=O)N(C)CC(=O)N[C@@H](CC(=O)O)C(=O)N[C@@H](C(C)C)C(=O)N(C)[C@@H](Cc2ccccc2)C(=O)N[C@@H](Cc2ccc(O)cc2)C(=O)N(C)CC(=O)N[C@@H](CCC(=O)O)C(=O)N[C@@H](Cc2ccc(O)cc2)C(=O)N[C@@H](CC(C)C)C(=O)N[C@H](C(=O)NCC(N)=O)CSCC(=O)N[C@@H](Cc2ccccc2)C(=O)N(C)[C@@H](Cc2ccccc2)C(=O)N1C [Example 3072] (HELM PEPTIDE1{[O=C(C[*:3])[*:2]].F.[meF].[CCCC[C@@H](C(=O)[*:2])N(C)[*:1]].[Sar].D.V.[meF].Y.[Sar].E.Y.L.C.G.[am]}$PEPTIDE1,PEPTIDE1,1:R3-14:R3$$$V2.0)",,> 30.5,> 74.3,,
"CCCC[C@H]1C(=O)N(C)CC(=O)N[C@@H](CC)C(=O)N[C@@H](C(C)C)C(=O)N(C)[C@@H](Cc2ccccc2)C(=O)N[C@@H](Cc2ccc(O)cc2)C(=O)N(C)CC(=O)N[C@@H](Cc2c[nH]c3ccccc23)C(=O)N[C@@H](Cc2ccc(O)cc2)C(=O)N[C@@H](CC(C)C)C(=O)N[C@H](C(=O)NCC(N)=O)CSCC(=O)N[C@@H](Cc2ccccc2)C(=O)N(C)[C@@H](Cc2ccccc2)C(=O)N1C [Example 3146] (HELM PEPTIDE1{[O=C(C[*:3])[*:2]].F.[meF].[CCCC[C@@H](C(=O)[*:2])N(C)[*:1]].[Sar].[Abu].V.[meF].Y.[Sar].W.Y.L.C.G.[am]}$PEPTIDE1,PEPTIDE1,1:R3-14:R3$$$V2.0)",,> 30.5,4.78 to 72.9,,
CCCC[C@H]1C(=O)N(C)[C@@H](CCCC)C(=O)N[C@@H](C)C(=O)N[C@H](C(=O)NCC(N)=O)CSCC(=O)N[C@@H](Cc2ccc(O)cc2)C(=O)N2CCC[C@H]2C(=O)N[C@@H](CC(=O)O)C(=O)N2CCC[C@H]2C(=O)N[C@@H](CN)C(=O)N[C@@H](CC(C)C)C(=O)N2C[C@H](O)C[C@H]2C(=O)N[C@@H](Cc2c[nH]c3ccccc23)C(=O)N[C@@H](CO)C(=O)N[C@@H](Cc2c[nH]c3ccccc23)C(=O)N1C [Example 1152] ({CH2CO}-YPDP[Dap]L[Hyp]WSW[NMeNle][NMeNle]ACG-NH2; thioether N-14),,6.76 to 30.3,4.78 to 72.9,,
CCCC[C@H]1C(=O)N[C@@H](CCCNC(=N)N)C(=O)NC(C(=O)NCC(N)=O)CSCC(=O)N[C@@H](Cc2ccc(O)cc2)C(=O)N(C)[C@@H](C)C(=O)N[C@@H](CC(N)=O)C(=O)N2CCC[C@H]2C(=O)N[C@@H](Cc2cnc[nH]2)C(=O)N[C@@H](CC(C)C)C(=O)N2C[C@H](O)C[C@H]2C(=O)N[C@@H](Cc2c[nH]c3ccccc23)C(=O)N[C@@H](CO)C(=O)N[C@@H](Cc2c[nH]c3ccccc23)C(=O)N(C)[C@@H](CCOC)C(=O)N1C (stereo partly shown) [Example 9004],4.78 to 72.9,0.385 to 6.74,,,
CCCC[C@H]1C(=O)N(C)[C@@H](CCCC)C(=O)N[C@@H](CCCN)C(=O)N[C@H](C(=O)NCC(N)=O)CSCC(=O)N[C@@H](Cc2ccc(O)cc2)C(=O)N(C)[C@@H](C)C(=O)N[C@@H](CC(N)=O)C(=O)N2CCC[C@H]2C(=O)N[C@@H](CN)C(=O)N[C@@H](CC(C)C)C(=O)N2C[C@H](O)C[C@H]2C(=O)N[C@@H](Cc2c[nH]c3ccccc23)C(=O)N[C@@H](CCN)C(=O)N[C@@H](Cc2csc3ccccc23)C(=O)N1C [Example 1194] ({CH2CO}-Y[NMeA]NP[Dap]L[Hyp]W[Dab][Bta][NMeNle][NMeNle][Orn]CG-NH2; thioether N-14),,0.385 to 6.74,0.158 to 4.71,,
CCCC[C@H]1C(=O)N(C)[C@@H](CCCC)C(=O)N[C@@H](CCN)C(=O)N[C@H](C(=O)NCC(N)=O)CSCC(=O)N[C@@H](Cc2ccc(O)cc2)C(=O)N(C)[C@@H](C)C(=O)N[C@@H](CCN)C(=O)N2CCC[C@H]2C(=O)N[C@@H](Cc2c[nH]cn2)C(=O)N[C@@H](CCC(=O)O)C(=O)N2C[C@H](O)C[C@H]2C(=O)N[C@@H](Cc2c[nH]c3ccccc23)C(=O)N[C@@H](CCN)C(=O)N[C@@H](Cc2c[nH]c3ccccc23)C(=O)N1C [Example 5104] ({CH2CO}-Y[NMeA][Dab]PHE[Hyp]W[Dab]W[NMeNle][NMeNle][Dab]CG-NH2; thioether N-14),0.158 to 4.71,0.385 to 6.74,,,
"CCCC[C@H]1C(=O)N2C[C@H](O)C[C@@H]2C(=O)N[C@@H](CC(N)=O)C(=O)N[C@@H](C(C)C)C(=O)N(C)[C@@H](Cc2ccccc2)C(=O)N[C@@H](Cc2ccc(O)cc2)C(=O)N2CCCC[C@@H]2C(=O)N[C@@H](Cc2c[nH]c3ccccc23)C(=O)N[C@@H](Cc2ccc(O)cc2)C(=O)N[C@@H](CCCCN)C(=O)N[C@H](C(=O)NCC(N)=O)CSCC(=O)N[C@@H](Cc2cc(F)c(F)c(F)c2)C(=O)N(C)[C@@H](Cc2ccccc2)C(=O)N1C [Example 3589] ({CH2CO}-[Phe(3,4,5-F3)][NMeF][NMeNle][d(cisHyp)]NV[NMeF]Y[dPip]WYKCG-NH2; thioether N-13)",0.158 to 4.71,0.385 to 6.74,,,
CCCC[C@H]1C(=O)N(C)CC(=O)N[C@@H](CC(=O)O)C(=O)N[C@@H](C(C)C)C(=O)N(C)[C@@H](Cc2ccccc2)C(=O)N[C@@H](Cc2ccc(CN)cc2)C(=O)N(C)CC(=O)N[C@@H](Cc2csc3ccccc23)C(=O)N[C@@H](Cc2ccc(O)cc2)C(=O)N[C@@H](CC(C)C)C(=O)N[C@H](C(=O)NCC(N)=O)CSCC(=O)N[C@@H](Cc2ccccc2)C(=O)N(C)[C@@H](Cc2ccccc2)C(=O)N1C [Example 3141] ({CH2CO}-F[NMeF][NMeNle][Sar]DV[NMeF][Phe(4-CH2NH2)][Sar][Bta]YLCG-NH2; thioether N-13),,6.76 to 30.3,4.78 to 72.9,,
CCCC[C@H]1C(=O)N(C)[C@@H](CCCC)C(=O)N[C@@H](CCCNC(=N)N)C(=O)N[C@H](C(=O)NCC(N)=O)CSCC(=O)N[C@@H](Cc2ccccc2)C(=O)N(C)[C@@H](C)C(=O)N[C@@H](CC(N)=O)C(=O)N2CCC[C@H]2C(=O)N[C@@H](Cc2cnc[nH]2)C(=O)N[C@@H](CC(C)C)C(=O)N2C[C@H](O)C[C@H]2C(=O)N[C@@H](Cc2c[nH]c3ccccc23)C(=O)N[C@@H](CO)C(=O)N[C@@H](Cc2c[nH]c3ccccc23)C(=O)N1C [Example 1087] ({CH2CO}-F[NMeA]NPHL[Hyp]WSW[NMeNle][NMeNle]RCG-NH2; thioether N-14),,0.385 to 6.74,0.158 to 4.71,,
CCCC[C@H]1C(=O)N(C)[C@@H](CCCC)C(=O)N[C@@H](CN)C(=O)N[C@H](C(=O)NCC(N)=O)CSCC(=O)N[C@@H](Cc2ccc(O)cc2)C(=O)N(C)[C@@H](C)C(=O)N[C@@H](CC(=O)O)C(=O)N2CCC[C@H]2C(=O)N[C@@H](CN)C(=O)N[C@@H](CCC(N)=O)C(=O)N2C[C@H](O)C[C@H]2C(=O)N[C@@H](Cc2c[nH]c3ccccc23)C(=O)N[C@@H](CCN)C(=O)N[C@@H](Cc2csc3ccccc23)C(=O)N1C [Example 1223] ({CH2CO}-Y[NMeA]DP[Dap]Q[Hyp]W[Dab][Bta][NMeNle][NMeNle][Dap]CG-NH2; thioether N-14),,0.385 to 6.74,0.158 to 4.71,,
CCCC[C@H]1C(=O)N(C)[C@@H](CCCC)C(=O)N[C@@H](CCCN)C(=O)N[C@H](C(=O)NCC(N)=O)CSCC(=O)N[C@@H](Cc2ccc(O)cc2)C(=O)N2C[C@H](N)C[C@H]2C(=O)N[C@@H](CC(N)=O)C(=O)N2CCC[C@H]2C(=O)N[C@@H](Cc2cnc[nH]2)C(=O)N[C@@H](CC(C)C)C(=O)N2C[C@H](O)C[C@H]2C(=O)N[C@@H](Cc2c[nH]c3ccccc23)C(=O)N[C@@H](CO)C(=O)N[C@@H](Cc2c[nH]c3ccccc23)C(=O)N1C [Example 1192],,,,21.5,6.74
CCCC[C@H]1C(=O)N(C)[C@@H](CCCC)C(=O)N[C@@H](CCCNC(=N)N)C(=O)N[C@H](C(=O)NCC(N)=O)CSCC(=O)N[C@@H](Cc2ccc(O)cc2)C(=O)N(C)[C@@H](C)C(=O)N[C@@H](CCN)C(=O)N2CCC[C@H]2C(=O)N[C@@H](Cc2c[nH]cn2)C(=O)N[C@@H](CC(=O)O)C(=O)N2C[C@H](O)C[C@H]2C(=O)N[C@@H](Cc2c[nH]c3ccccc23)C(=O)N[C@@H](CO)C(=O)N[C@@H](Cc2c[nH]c3ccccc23)C(=O)N1C [Example 5132] ({CH2CO}-Y[NMeA][Dab]PHD[Hyp]WSW[NMeNle][NMeNle]RCG-NH2; thioether N-14),4.78 to 72.9,6.76 to 30.3,,,
CCCC[C@H]1C(=O)N(C)[C@@H](CCCC)C(=O)N[C@@H](CCCN)C(=O)N[C@H](C(=O)NCC(N)=O)CSCC(=O)N[C@@H](Cc2ccc(O)cc2)C(=O)N2CCCC[C@H]2C(=O)N[C@@H](CC(N)=O)C(=O)N2CCC[C@H]2C(=O)N[C@@H](Cc2cnc[nH]2)C(=O)N[C@@H](CCC(=O)O)C(=O)N2C[C@H](O)C[C@H]2C(=O)N[C@@H](Cc2c[nH]c3ccccc23)C(=O)N[C@@H](CO)C(=O)N[C@@H](Cc2c[nH]c3ccccc23)C(=O)N1C [Example 1234] ({CH2CO}-Y[Pip]NPHE[Hyp]WSW[NMeNle][NMeNle][Orn]CG-NH2; thioether N-14),,6.76 to 30.3,0.158 to 4.71,,
